Laboratory results reported in patent US9695155B2, “Herbicidal substituted pyrimidinyloxy benzene compounds” (E. I. DU PONT DE NEMOURS AND COMPANY, priority 2013, dated 2017).

Experiments:
barnyardgrass [1] = test: Test A preemergence; assay type: in vivo, Echinochloa crus-galli; conditions: for Plant response rating, Barnyardgrass: 125 g ai/ha, 0 to 100 scale where 0 is no effect and 100 is complete control
In short: (§1)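 Scoring: eye-based comparison with untreated controls, 0 for no effect through 100 for complete control, at about day 10. Treatments: directed soil spray preemergence; foliar spray postemergence on 2–10 cm plants at the one- to two-leaf stage. Medium: loam soil with sand.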

large (Lg) crabgrass [2] = test: Test A preemergence; assay type: in vivo, Digitaria sanguinalis
In short: as §1

giant foxtail [3] = test: Test A preemergence; assay type: in vivo, Setaria faberii; conditions: for Plant response rating, Foxtail, Giant: 125 g ai/ha, 0 to 100 scale where 0 is no effect and 100 is complete control
In short: as §1

pigweed [4] = test: Test A preemergence; assay type: in vivo, Amaranthus retroflexus; conditions: for Plant response rating, Pigweed: 125 g ai/ha, 0 to 100 scale where 0 is no effect and 100 is complete control
In short: as §1

velvetleaf [5] = test: Test A preemergence; assay type: in vivo, Abutilon theophrasti
In short: as §1

wheat [6] = test: Test A preemergence; assay type: in vivo, Triticum aestivum
In short: as §1

corn [7] = test: Test A preemergence; assay type: in vivo, Zea mays
In short: as §1

barnyardgrass [8] = test: Test A postemergence; assay type: in vivo, Echinochloa crus-galli
In short: as §1

large (Lg) crabgrass [9] = test: Test A postemergence; assay type: in vivo, Digitaria sanguinalis
In short: as §1

giant foxtail [10] = test: Test A postemergence; assay type: in vivo, Setaria faberii
In short: as §1

morningglory = test: Test A postemergence; assay type: in vivo, Ipomoea spp.
In short: as §1

pigweed [11] = test: Test A postemergence; assay type: in vivo, Amaranthus retroflexus
In short: as §1

velvetleaf [12] = test: Test A postemergence; assay type: in vivo, Abutilon theophrasti
In short: as §1

wheat [13] = test: Test A postemergence; assay type: in vivo, Triticum aestivum
In short: as §1

corn [14] = test: Test A postemergence; assay type: in vivo, Zea mays
In short: as §1

rice [15] = test: Test B flooded paddy test; assay type: in vivo, Oryza sativa; conditions: Flood, 250 g ai/ha; 0 to 100 scale where 0 is no effect and 100 is complete control
In short: (§2)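 2-leaf stage plants; pots flooded to 3 cm, compound added to paddy water, depth maintained. Greenhouse 13–15 d. Visual rating vs untreated controls, 0 (no effect) to 100 (complete control); dash = no result.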

sedge, umbrella [16] = test: Test B flooded paddy test; assay type: in vivo, Cyperus difformis; conditions: Flood, 250 g ai/ha; 0 to 100 scale where 0 is no effect and 100 is complete control
In short: as §2

Heteranthera limosa = test: Test B flooded paddy test; assay type: in vivo; conditions: Flood, 250 g ai/ha; 0 to 100 scale where 0 is no effect and 100 is complete control
In short: as §2

barnyardgrass [17] = test: Test B flooded paddy test; assay type: in vivo, Echinochloa crus-galli; conditions: Flood, 250 g ai/ha; 0 to 100 scale where 0 is no effect and 100 is complete control
In short: as §2

rice [18] = test: Test C flooded paddy test; assay type: in vivo, Oryza sativa; conditions: Flood, scale 0 to 100 (0 no effect, 100 complete control), 13 to 15 days
Excerpt: (§3) At time of treatment, test pots were flooded to 3 cm above the soil surface, treated by application of test compounds directly to the paddy water, and then maintained at that water depth for the duration of the test. Treated plants and controls were maintained in a greenhouse for 13 to 15 days, after which time all species were compared to controls and visually evaluated. […] A dash (-) response means no test result.

sedge, umbrella [19] = test: Test C flooded paddy test; assay type: in vivo, Cyperus difformis; conditions: Flood, scale 0 to 100 (0 no effect, 100 complete control), 13 to 15 days
Excerpt: as §3

ducksalad = test: Test C flooded paddy test; assay type: in vivo, Heteranthera limosa; conditions: Flood, scale 0 to 100 (0 no effect, 100 complete control), 13 to 15 days
Excerpt: as §3

barnyardgrass [20] = test: Test C flooded paddy test; assay type: in vivo, Echinochloa crus-galli; conditions: Flood, scale 0 to 100 (0 no effect, 100 complete control), 13 to 15 days
Excerpt: as §3

kochia [21] = test: Test A preemergence; assay type: in vivo, Kochia scoparia
In short: as §1

ragweed [22] = test: Test A preemergence; assay type: in vivo, Ambrosia elatior
In short: as §1

Italian ryegrass [23] = test: Test A preemergence; assay type: in vivo, Lolium multiflorum
In short: as §1

kochia [24] = test: Test A postemergence; assay type: in vivo, Kochia scoparia
In short: as §1

ragweed [25] = test: Test A postemergence; assay type: in vivo, Ambrosia elatior
In short: as §1

Italian ryegrass [26] = test: Test A postemergence; assay type: in vivo, Lolium multiflorum
In short: as §1

blackgrass = test: Test A postemergence; assay type: in vivo, Alopecurus myosuroides
In short: as §1

galium = test: Test A postemergence; assay type: in vivo, Galium aparine
In short: as §1

[27] = 500 g ai/ha, 0 to 100 scale, 0 no effect, 100 complete control, approx. 10 days
[28] = 125 g ai/ha, 0 to 100 scale where 0 is no effect and 100 is complete control
[29] = 500 g ai/ha, 0 to 100 scale, 0 no effect, 100 complete control
[30] = 31 g ai/ha, 0 to 100 scale, 0 no effect, 100 complete control

Clc1cnc(Oc2ccccc2-n2cnc(Br)c2)nc1 [Compound 34]
90: Crabgrass, Large plant response rating (large (Lg) crabgrass [2]; [27]) | Plant response rating, Pigweed (pigweed [11]; [28]) | Plant response rating, Sedge, Umbrella (sedge, umbrella [16]) | Plant response rating, Ducksalad (Heteranthera limosa)
75: Plant response rating, Ducksalad (ducksalad; 250 g ai/ha)
80: Plant response rating, Pigweed (pigweed [4]) | Velvetleaf plant response rating (velvetleaf [5]; [27]) | Plant response rating, Morningglory (morningglory; [29]) | Plant response rating, Velvetleaf (velvetleaf [12]; [28])
0: Plant response rating, Barnyardgrass (barnyardgrass [1]) | Plant response rating, Wheat (wheat [6]; [28]) | Wheat plant response rating (wheat [6]; [27]) | Plant response rating, Corn (corn [7]; [28]) | Corn plant response rating (corn [7]; [27]) | Plant response rating, Wheat (wheat [13]; [28]) | Plant response rating, Rice (rice [18]; 31 g ai/ha) | Plant response rating, Rice (rice [18]; 62 g ai/ha) | Plant response rating, Rice (rice [18]; 125 g ai/ha) | Plant response rating, Rice (rice [18]; 250 g ai/ha) | Plant response rating, Sedge, Umbrella (sedge, umbrella [19]; 31 g ai/ha) | Plant response rating, Sedge, Umbrella (sedge, umbrella [19]; 62 g ai/ha) | Plant response rating, Sedge, Umbrella (sedge, umbrella [19]; 125 g ai/ha) | Plant response rating, Ducksalad (ducksalad; 31 g ai/ha) | Plant response rating, Ducksalad (ducksalad; 62 g ai/ha) | Plant response rating, Barnyardgrass (barnyardgrass [20]; 31 g ai/ha) | Plant response rating, Barnyardgrass (barnyardgrass [20]; 62 g ai/ha) | Plant response rating, Barnyardgrass (barnyardgrass [20]; 125 g ai/ha)
10: Plant response rating, Corn (corn [14]; [28]) | Plant response rating, Barnyardgrass (barnyardgrass [20]; 250 g ai/ha)
60: Plant response rating, Velvetleaf (velvetleaf [5]; [28]) | Plant response rating, Crabgrass, Large (large (Lg) crabgrass [9]; [29]) | Plant response rating, Morningglory (morningglory; [28])
100: Foxtail, Giant plant response rating (giant foxtail [3]; [27]) | Pigweed plant response rating (pigweed [4]; [27]) | Plant response rating, Pigweed (pigweed [11]; [29]) | Plant response rating, Velvetleaf (velvetleaf [12]; [29])
30: Plant response rating, Foxtail, Giant (giant foxtail [3]) | Plant response rating, Foxtail, Giant (giant foxtail [10]; [28]) | Plant response rating, Rice (rice [15])
70: Plant response rating, Crabgrass, Large (large (Lg) crabgrass [2]; [28]) | Plant response rating, Foxtail, Giant (giant foxtail [10]; [29]) | Plant response rating, Sedge, Umbrella (sedge, umbrella [19]; 250 g ai/ha)
20: Plant response rating, Barnyardgrass (barnyardgrass [8]; [28]) | Plant response rating, Wheat (wheat [13]; [29]) | Plant response rating, Corn (corn [14]; [29]) | Plant response rating, Barnyardgrass (barnyardgrass [17]) | Plant response rating, Ducksalad (ducksalad; 125 g ai/ha)
50: Barnyardgrass plant response rating (barnyardgrass [1]; [27]) | Plant response rating, Barnyardgrass (barnyardgrass [8]; [29]) | Plant response rating, Crabgrass, Large (large (Lg) crabgrass [9]; [28])

FC(F)Oc1cnn(-c2c(Br)cccc2Oc2ncc(Cl)cn2)c1 [Compound 122]
30: Ragweed plant response rating (ragweed [25]; [28]) | Corn plant response rating (corn [14]; [28]) | Plant response rating, Blackgrass (blackgrass; [30])
20: Kochia plant response rating (0 to 100 scale) (kochia [21]; 31 g ai/ha) | Ryegrass, Italian plant response rating (Italian ryegrass [26]; [28]) | Plant response rating, Galium (galium; [30])
90: Kochia plant response rating (kochia [24]; [28])
10: Barnyardgrass plant response rating (0 to 100 scale) (barnyardgrass [1]; 31 g ai/ha) | Plant response rating, Barnyardgrass (barnyardgrass [8]; [30]) | Plant response rating, Ragweed (ragweed [25]; [30]) | Plant response rating, Foxtail, Giant (giant foxtail [10]; [30]) | Wheat plant response rating (wheat [13]; [28]) | Plant response rating, Corn (corn [14]; [30])
75: Plant response rating, Sedge, Umbrella (sedge, umbrella [16])
40: Barnyardgrass plant response rating (barnyardgrass [8]; [28]) | Galium plant response rating (galium; [28])
80: Pigweed plant response rating (0 to 100 scale) (pigweed [4]; 31 g ai/ha) | Blackgrass plant response rating (blackgrass; [28]) | Plant response rating, Ducksalad (Heteranthera limosa)
100: Plant response rating, Kochia (kochia [21]; [28]) | Plant response rating, Foxtail, Giant (giant foxtail [3]) | Plant response rating, Pigweed (pigweed [4]) | Pigweed plant response rating (pigweed [11]; [28])
70: Plant response rating, Barnyardgrass (barnyardgrass [1]) | Plant response rating, Pigweed (pigweed [11]; [30])
0: Ragweed plant response rating (0 to 100 scale) (ragweed [22]; 31 g ai/ha) | Plant response rating, Ragweed (ragweed [22]; [28]) | Ryegrass, Italian plant response rating (0 to 100 scale) (Italian ryegrass [23]; 31 g ai/ha) | Plant response rating, Ryegrass, Italian (Italian ryegrass [23]; [28]) | Plant response rating, Ryegrass, Italian (Italian ryegrass [26]; [30]) | Plant response rating, Wheat (wheat [13]; [30]) | Plant response rating, Rice (rice [15]) | Plant response rating, Barnyardgrass (barnyardgrass [17])
50: Foxtail, Giant plant response rating (0 to 100 scale) (giant foxtail [3]; 31 g ai/ha) | Plant response rating, Kochia (kochia [24]; [30])
60: Foxtail, Giant plant response rating (giant foxtail [10]; [28])
